Reference: the NIST ThermoML archive (doi:10.1016/j.jct.2008.01.028)
Numbers after ± are expanded uncertainties.

Assay: wn = mass fraction of the nth substance listed
Details: Liquid

CN(CCO)CCO [N-methyldiethanolamine] + O
mass density (298.31 K, 205 kPa, w1 = 0.3): 1023.7 ± 0.7 kg/m3 | mass density (298.31 K, 506 kPa, w1 = 0.3): 1023.8 ± 0.7 kg/m3 | mass density (298.31 K, 1006 kPa, w1 = 0.3): 1024 ± 0.7 kg/m3 | mass density (298.31 K, 2006 kPa, w1 = 0.3): 1024.3 ± 0.8 kg/m3 | mass density (298.32 K, 5003 kPa, w1 = 0.3): 1025.5 ± 0.8 kg/m3 | mass density (298.33 K, 206 kPa, w1 = 0.15): 1009.9 ± 0.6 kg/m3 | mass density (298.33 K, 508 kPa, w1 = 0.15): 1010 ± 0.6 kg/m3 | mass density (298.33 K, 1008 kPa, w1 = 0.15): 1010.2 ± 0.6 kg/m3 | mass density (298.33 K, 2008 kPa, w1 = 0.15): 1010.6 ± 0.6 kg/m3 | mass density (298.34 K, 5006 kPa, w1 = 0.15): 1011.9 ± 0.6 kg/m3
